Here are results for 14 molecules from US12370180B2, “P38 map kinase inhibitors for treating Friedreich's ataxia” (THE TRUSTEES OF THE UNIVERSITY OF PENNYSLVANIA, priority 2015, dated 2025).

What all share (format): cell-based, human
The test system of one data set is primary FA fibroblasts. The data set is described as follows: Growth of primary FA fibroblasts in beta-hydroxybutyrate (BHB) based mitochondrial stress medium. The conditions noted are these: for reversal of the slow-growth phenotype (growth defect) of primary FA fibroblasts: beta-hydroxybutyrate-based media. The procedure: The data shown are the means of triplicate samples+/−one SD. ***p<0.005. (C) Survival of normal control fibroblasts (GM8402) and FA fibroblasts (GM4078) in DMEM plus BHB after 12 days in culture. ***p<0.005. […] Cells were seeded at 80,000 cells per 100 mm dish and were kept sub-confluent. The data shown are the means of triplicate samples+/−one SD. ***p<0.005.
FA 3665B cells were infected with gFA2 (squares), gFA11 (diamonds) or a random clone (C3) (triangles). Cells were then sorted and GFP-positive cells were grown in DMEM plus BHB 5 mM (FIG. 4A) or in DMEM plus 5 mM glucose (FIG. 4B) ***=p […].
FA is caused by intronic trinucleotide repeat expansions that decrease expression of frataxin, a protein involved in mitochondrial iron-sulfur-cluster biogenesis. Clones were selected that reverse the slow-growth phenotype of primary FA fibroblasts in media with beta-hydroxybutyrate, a carbon source that particularly stresses cells with mitochondrial dysfunction (FIGS. 1 and 3). Among several clones identified, two clones have been tested and confirmed (FIG. 4): “Clone 2” (also referred to as gFA2) and “Clone 11” (also referred to as gFA11). The DNA coding strand for the shRNA sequences of those two […] (gFA2 and gFA11) are provided below, with the loop-encoding sequences in brackets. The shRNAs themselves are RNA versions of these sequences, with T changed to U.
These experiments have been repeated several times, over 4 days, 7 days, and 10 days, with the same results. Therefore, random shRNA screening can be combined with bioinformatic pattern matching to identify conventional chemical-compound therapeutic candidates, and potential therapeutic target proteins.

The subject of the next data set is frataxin. The data set can be described thus: Frataxin expression in primary FA fibroblasts. The conditions noted are these: vector-expressed shRNA or 10 nM transfected siRNA, BHB medium. The protocol:
Frataxin expression in GM3816 cells infected with gFA2 vs. a random clone (C3) (FIG. 5A) and in GM3665B cells transfected with 10 nM gFA2 siRNA or a random clone (C3) (FIG. 5B). Cells were transfected every 3-4 days for two weeks and kept in BHB medium after the first transfection. ***=p value<0.005
FIG. 6: Hit-optimization of clone gFA2. A sub-library of ˜3000 sequences was constructed, each with a limited number of random mutations compared to gFA2. This sub-library was screened as described previously and two gFA2-variant clones, gFA2.8 and gFA2.10, were identified. […] (Cells were transfected every two days for one week and kept in DMEM plus 5 mM BHB after the first transfection. ***=p value<0.005). gFA2.8 has 5 mutations compared to gFA2; as a result, there are 5 mismatched bases in the hairpin structure.

The test system of the next data set is cytokine secretion. The data set is described as follows: Cytokine secretion into media of FA cells, measured by ELISA. The conditions noted are these: media of FA cells expressing clone vs gFA11-Mut1. The text has this:
FIGS. 9A and 9B show the effect of gFA11 and gFA11-Mut1 shRNA sequences on the secretion of cytokines as measured by ELISA. […] These secretion patterns matched the expression changes seen on microarray analysis of mRNAs of the same cytokines.
(§1) Of relevance, it has been shown that silencing of the FA disease gene induces a senescence phenotype. […] Finally, gene-expression analyses of cells expressing Clone 11 also indicated an up-regulation of genes involved in DNA repair.

Another data set has as its system GM3816 cells. The data set can be described thus: Sensitivity of FA cells to ionizing (gamma) radiation. Particulars: 0.6 Gy irradiation.
Source text: as §1

Changes are numbered by the printed parent chain. “Also recorded” adds a separate entry of the source.

Turning to `Cc1ccc(-n2nc(C(C)(C)C)cc2NC(=O)NCc2cc(F)ccc2Oc2ccc3c(cnn3CCO)c2)cc1` [ARRY-614, pexmetinib], the “reversal of the slow-growth phenotype (growth defect) of primary FA fibroblasts” value (“reversal of the slow-growth phenotype” below) in the data set on primary FA fibroblasts is reported as “reversal of the growth defect”.
The same measure, in the same setting: next, `Cc1ccc(-n2nc(C(C)(C)C)cc2NC(=O)Nc2ccc(OCCN3CCOCC3)c3ccccc23)cc1` [BIRB-796, doramapimod]: “recapitulate the phenotype induced by Clone 11; also recorded: reverses the growth defect”; `Cc1c(F)cc(C(=O)NC2CC2)cc1-c1ccc(C(=O)NCC(C)(C)C)cn1` [GW-856553, losmapimod]: “reversal of the growth defect”.
For the molecule `CNC(=O)c1ccc(C)c(-n2c(C)cc(OCc3ccc(F)cc3F)c(Br)c2=O)c1` [PH-797804], the “reversal of the slow-growth phenotype” value in the data set with primary FA fibroblasts is recorded as “reversal of the growth defect”.
Same read-out and setting: next, `Oc1ccc(-c2nc(-c3ccncc3)c(-c3ccc(F)cc3)[nH]2)cc1` [SB-202190]: “recapitulate the phenotype induced by Clone 11; also recorded: reversal of the growth defect”.
For the molecule `C[S+]([O-])c1ccc(-c2nc(-c3ccncc3)c(-c3ccc(F)cc3)[nH]2)cc1` (centres unmarked) [SB-203580], the “reversal of the slow-growth phenotype” value was “recapitulates the phenotype induced by Clone 11; also recorded: reverses the growth defect” with primary FA fibroblasts and “increase the growth of FA cells in a dose-dependent manner” in the data set on primary FA fibroblasts (listed as SB203580).
In the data set on primary FA fibroblasts (at 500 nM, p=0.02), `NC(=O)c1ccc(N(C(N)=O)c2c(F)cccc2F)nc1-c1ccc(F)cc1F` [VX-702] gave an increased growth of 1.2 fold. Moreover, the “reversal of the slow-growth phenotype” value in the data set on primary FA fibroblasts is “recapitulate the phenotype induced by Clone 11; also recorded: reversal of the growth defect”.
As for `O=c1ncn2nc(Sc3ccc(F)cc3F)ccc2c1-c1c(Cl)cccc1Cl` [VX-745], the “reversal of the slow-growth phenotype” value with primary FA fibroblasts is on record as “reversal of the growth defect”.
Still for that read-out and setting: next, “gFA11-Mut1: version of Clone 11 with a point mutation in the seed sequence, SEQ ID No: 5 and 6 (chain 1 AACACAAUGGAAGAGUGCUGGGUDGDG; chain 2 UGUUGUGUUACCUUCUCACGACCCACC; listed as RNA, chemistry not fully specified; one strand is listed 3' to 5')”: “diminished; also recorded: the growth-enhancement phenotype of gFA11 is affected”.
As for “gFA11: hit shRNA from random library, SEQ ID No: 2; siRNA version SEQ ID No: 3 and 4 (chain 1 AACAGAAUGGAAGAGUGCUGGGUDGDG; chain 2 UGUUGUCUUACCUUCUCACGACCCACC; listed as RNA, chemistry not fully specified; one strand is listed 3' to 5')”, the “reversal of the slow-growth phenotype” value in the data set on primary FA fibroblasts was “increase the growth of FA fibroblasts; also recorded: growth-enhancing effect; also recorded: recapitulate the phenotype induced by the corresponding shRNA sequence”. Besides, in the data set with primary FA fibroblasts (listed as Clone 11), the “reversal of the slow-growth phenotype” value was “more effective than Clone 2”. Also, the frataxin expression entry in the data set on frataxin is “does not increase frataxin expression”. Also, in the data set with cytokine secretion (p<0.001), the GM-CSF secretion result is listed as “decreases” and the VEGF secretion result is recorded as “decreases”. Further, the “IL8 (IL-8) secretion” value in the data set with cytokine secretion (p=0.001) is recorded as “decreases”. In the data set on cytokine secretion (p=0.003), the GRO secretion result is “decreases”. Moreover, the MCP-1 secretion result in the data set with cytokine secretion (p=0.005) is “decreases”. Besides, in the data set on cytokine secretion (p=0.01), the “IL1-beta (IL-1-beta) secretion” value is reported as “decreases” and the IP-10 secretion result is “decreases”. Besides, the RANTES secretion result in the data set on cytokine secretion (p=0.04) is “decreases”. The “IL6 (IL-6) secretion” value in the data set with cytokine secretion (p=0.09) is “decreases”. Also, the “cell susceptibility to gamma irradiation” value in the data set on GM3816 cells was “are able to recover”. Besides, in the data set on GM3816 cells (listed as Clone 11), the “cell susceptibility to gamma irradiation” value is recorded as “protective”.
ralimetinib dimesylate [LY-2228820]: the increased growth with primary FA fibroblasts (at 50 nM, p<0.005) was determined as 1.6 fold. In addition, the “reversal of the slow-growth phenotype” value with primary FA fibroblasts is “recapitulate the phenotype induced by Clone 11; also recorded: reversal of the growth defect”.

B1: gFA2: hit shRNA (also used as siRNA) from random shRNA library, SEQ ID No: 1 (nucleic acid)
chain: GCCAATCGGGGAGGTCGGCGCATATCATGCTAAACCATGATATGCGCCGACCTCCCCGATTGGC
With B1, in the data set on primary FA fibroblasts, the “reversal of the slow-growth phenotype” value was “increase the growth of FA fibroblasts”. Moreover, the frataxin expression entry is listed as “increases frataxin expression” in the data set on frataxin and “partially reverses the decreased expression of frataxin” in the data set with frataxin (listed as Clone 2).

B2: gFA2.8: gFA2-variant clone with 5 mutations compared to gFA2, SEQ ID No: 9 (nucleic acid)
chain: B1 chain with A4C, A5C, G11C, C21A, C36T
modifications: expressed or natural sequence
Take B2: in the data set on frataxin, the frataxin expression result is recorded as “more efficacious”.

B3: gFA2.10: gFA2-variant clone, SEQ ID No: 10 (nucleic acid)
chain: B1 chain with A4C, A5C, G11C, C21A, C36T, C54T
modifications: expressed or natural sequence
As to B3, the frataxin expression result in the data set with frataxin is recorded as “more efficacious”.
